# Measurements from PMC6397180 (Scientific Reports, 2019).
# “And” between values parts separate entries of the source, which are not always exact repeats. Equal values may be shown once.
# Legend:
# 293T cells = assay: Flow cytometry of labeled CPP uptake; assay type: cell-based, human; settings: for effect of soluble heparin on CPP uptake: 293T cells incubated with labeled CPPs and increasing concentrations of soluble heparin; for decrease of CPP uptake at 4 °C compared with 37 °C: 2 μM CPP, 4 °C (10 min pre-incubation) vs 37 °C
# Experimental: 293T cells were plated in 12-well plates at 2.5 × 10^5 cells per well, to achieve approximately 70% - 80% confluence by the next day. Thirty minutes before the experiment, cell medium was changed to low-serum DMEM with 1% Pen-Strep. Cells were washed once with PBS, treated with Tat-CPP in low-serum DMEM, and placed in either a tissue-culture incubator (37 °C/5% CO2) or a refrigerator (4 °C)(samples treated at 4 °C were pre-incubated in refrigerator for 10 minutes before CPP treatment). Cells were gently washed twice with PBS (w/10%FBS), then treated with 300 µl of pre-warmed 0.05% trypsin for 5 min, to detach cells and enzymatically digest surface-bound Tat-CPP. Cells were resuspended in 1 ml PBS (with 10% FBS and 2 mM EDTA), and peptide uptake assessed by flow cytometry (FACScalibur). Live cells were gated using forward-scatter and side-scatter ratio, then interrogated >10,000 live-cell events each for fluorescence signal emission at 488 nm. Data was analyzed using FlowJo software v9.3.3 (FlowJo LLC). To adjust for differences in instrument settings and voltage adjustments between experiments we transformed the raw MFI values within each experiment into values proportional to the greatest MFI reading in that particular experiment. Heparinase enzymes were used to pre-treat cells by combination of Heparinase I and III at 17 IU and 1 IU, respectively, per mL of plain DMEM. Cells were treated with enzymes for 2 h in an 37 °C, then washed with PBS and exposed to CPPs as above.
# [1] = test system: h-Hu_C20 human microglial cells; assay: qRT-PCR of cytokine gene expression in C20 cells exposed to Tat; assay type: cell-based; settings: equivalent levels of Tat proteins applied; compared with position 57 variant of the same clade
# Experimental: We transfected 2 × 10^6 HeLa cells with pEGFP, pcDNA 3.1 and the plasmids expressing the four Tat variants. At 24 hours post transfection, media were collected and Tat ELISA performed to determine the amount of Tat present. C20 microglia (2 × 10^6) were incubated with equal amounts of Tat media for 24 h. PMA (5 ng) or LPS (5 ng) were also included in separate wells as controls. C20 cells were washed with PBS, treated with trypsin, pelleted by centrifugation at 500 × g for 10 minutes, and total cell RNA isolated using an RNeasy Kit (Qiagen). RNA was reverse transcribed in a first-strand cDNA synthesis reaction (GoScript, Promega), using oligo dT primers. The cDNA was diluted to 100 ng per 3 μL in each reaction well, and combined with 2x Taqman Gene Expression Master Mix (ThermoFisher) and Taqman Gene Expression Assay primer-probes: GAPDH (Hs02758991_g1), IL6 (Hs00985639_m1), IL8 (Hs00174103_m1), IL-1β (Hs00174097_m1) or CXCL1 (Hs00236937_m1). Each sample was assayed in triplicate on a 384-well plate, and run under standard qRT-PCR cycling conditions on a 7900HT instrument (ABI).
# [2] = test system: primary human neuron-astrocyte co-cultures; assay: Treatment of neurons with spent media from Tat-exposed microglia; assay type: cell-based; settings: co-cultures treated 30 h with 200 µl spent media from Tat-exposed microglia, neurotubulin staining
# Experimental: (§1) C20 microglia were exposed for 24 h, to equivalent inputs of HeLa cell media containing Tat protein (Tat-B*, Tat-B* R57S, Tat-C or Tat-C S57R or empty vector) as described above for cytokine expression. As a control, spent media of HeLa cells transfected with an empty pcDNA 3.1 construct was used. Approximately 50, 000 cells containing a mixture of human fetal neurons and glia plated on 35 mm MatTek plates were treated with 200 µl of spent media from Tat-exposed microglial cultures for 30 h.
# For the purpose of imaging of neurons and quantifying axonal/dendritic lengths, neurons treated as above were fixed with 4% PFA for 15 min and washed with 1x PBS. Cells were permeabilized with 0.1% Triton X-100 for 3 minutes and washed as before. Non-specific sites were blocked with 1X SBS buffer (50 mM EDTA, 0.01% Fish Gelatin, 0.1 g BSA, 1% Horse serum in PBS) for 1 h at room temperature and the cells washed. Cells were stained with anti-neurotubulin antibodies, anti-GFAP antibodies and DAPI to stain neurons, glial cells and nuclei respectively. Neuronal images were captured using a Leica Confocal TCS SP5 microscope (Leica Microsystems, Bannockburn, IL). Axonal/dendritic lengths were quantified using Volocity 6.3 software.
# C20 microglial cells = assay: TNFα protein in supernatants of Tat-treated microglia (Luminex cytokine detection assay); assay type: cell-based, human; settings: C20 microglia exposed 24 h to equivalent inputs of Tat-containing HeLa media
# Experimental: as §1
# [3] = test system: PMA-differentiated THP-1 cells; assay: Confocal microscopy of labeled CPP uptake; assay type: cell-based; settings: 1 μM peptide, 37 °C, 30 minutes, trypsin to strip surface-bound CPP, fluorescence 488 nm
# Experimental: Approximately 4 × 10^5 THP-1 cells were plated in 35 mm MatTek cover dishes in media containing 10 nM PMA to induce adherence and differentiation. After 48 h the media was changed to RPMI/FBS without PMA. Thirty minutes before adding the labeled-CPPs, cell media were replaced with low serum (1% FBS) RPMI. THP-1 cells were treated with CPP for 30 minutes at 37 °C, washed twice with phosphate buffered saline (PBS) in 10% FBS, and incubated with 0.05% trypsin for 10 minutes to digest any surface-bound CPPs. Cells were washed twice with PBS/FBS and then incubated for 20 minutes in Hank’s Buffered Salt Solution (HBSS) with 1X diluted WGA-633 cell membrane stain (Life Technologies). […] Cells were imaged using a Leica SP8 Confocal Microscope and collected fluorescence data from 405 nm (DAPI stained cell nuclei), 488 nm (internalized labeled-CPP signal), and 633 nm (WGA-633 stained plasma membrane) channels as a series of Z-stacks. Analysis of cells with red and green fluorescence was conducted using Image J. The perimeter of each cell was circled using the red stain as a guide. Subsequently, mean intensity of green fluorescence contained in each cell was measured. For each condition, three random fields of view were analyzed.
# [4] = test system: interaction of Tat with HSPGs on TZM-bl cells; assay: Inhibition of transcellular transactivation by HSPG competitive antagonists; assay type: cell-based, human; settings: TZM-bl cells exposed to Tat-B-WT produced in HeLa cells
# Experimental: HeLa cells were seeded in 6-well plates at 7.5 × 10^5 cells per well and transfected with 2.5 μg of Tat expression plasmid DNA (Lipofectamine 3000, Invitrogen). After 6 h, the media was replaced with DMEM/10% FBS. Next day, TZM-bl reporter cells were seeded in a 24-well plate, at 1.5 × 10^5 cells per well. Similarly, C20 microglial cells were seeded in a 12-well plate, at 3 × 10^5 cells per well. After allowing 5–6 h for cell attachment, supernatant from the tat-transfected HeLa cells was collected, which was centrifuged at 500 × g for 10 minutes to remove debris and dead cells. Importantly, at this step and all others involving handling of Tat-containing media, siliconized tubes and tips were used to minimize the adsorption of Tat to surfaces. Tat-transfected HeLa supernatants were used to replace either TZM-bl media (400 μL) or C20 media (800 μL), and the cells incubated for 12 h (C20) or 24 h (TZM-bl).
# TZM-bl cell lysates were harvested and stored at −80 °C until luciferase activity was measured. Frozen TZM-bl cell lysates were thawed on ice for 30 minutes, centrifuged at 14,000 × g for 2 minutes, and the protein concentration in the supernatants measured by BCA protein assay. […] The side of the plate was gently tapped and each sample was immediately assayed for luciferase activity using a plate-reader, measuring each sample in Relative Light Units (RLU) (PerkinElmer VICTOR-2).
# [5] = test system: LTR-driven luciferase reporter gene in TZM-bl cells; assay type: cell-based, human
molecule,measurement,setting,value
"GRKKRRQRRS [CPP-S57, Tat CPP decapeptide (residues 48–57) of HIV-1C, N-terminal HiLyte Fluor 488 tag]",uptake in dose response,"293T cells; 293T and THP1 cells, increasing concentrations of CPP, flow cytometry",reduced uptake
same,effect of soluble heparin on CPP uptake,293T cells,dose-dependent inhibition of uptake
same,decrease of CPP uptake at 4 °C compared with 37 °C,"293T cells; 293T cells, flow cytometry",50% and ~ 50%
Tat-B*: Tat-B variant with R7N and K12N mutations and C-terminal myc tag,"inflammatory cytokine gene transcripts IL-6, IL-8, IL-1β and CXCL1",[1],higher levels
same,appearance of neuronal processes (dendrites and axons),[2],shorter and thinner
same,TNFα protein levels in supernatants of Tat-treated microglia,C20 microglial cells,19.2 ng/mL
"GRKKRRQRRR [CPP-R57, Tat CPP decapeptide (residues 48–57) of HIV-1B, N-terminal HiLyte Fluor 488 tag]",effect of soluble heparin on CPP uptake,293T cells,dose-dependent inhibition of uptake
same,decrease of CPP uptake at 4 °C compared with 37 °C,"293T cells; 293T cells, flow cytometry",~ 75%
same,CPP-R57 uptake relative to CPP-S57,"293T cells; 293T cells, flow cytometry, 2 μM peptide, n = 4",3–4 fold
same,internalization of labeled peptide (confocal microscopy),[3],higher amount of labeled peptide
Cc1ccc(C(=O)Nc2ccc(S(=O)(=O)O)c3cc(S(=O)(=O)O)cc(S(=O)(=O)O)c23)cc1NC(=O)c1cccc(NC(=O)Nc2cccc(C(=O)Nc3cc(C(=O)Nc4ccc(S(=O)(=O)O)c5cc(S(=O)(=O)O)cc(S(=O)(=O)O)c45)ccc3C)c2)c1 [suramin],concentration sufficient to diminish transcellular transactivation of extracellular Tat to near background levels,[4],100 µg/mL
heparin,concentration sufficient to diminish transcellular transactivation of extracellular Tat to near background levels,[4],10 µg/mL
"Tat-B-49AAA51: Tat-B with triple alanine substitution in residues 49-RKK-51 (protein, UniProt P04608 1-86, looked up, variant R49A K50A K51A) Protein Tat: MEPVDPRLEPWKHPGSQPKTACTNCYCKKCCFHCQVCFITKALGISYGAAARRQRRRAHQNSQTHQASLSKQPTSQPRGDPTGPKE",transcriptional activity relative to TatB-WT,[5],10%
same,decrease of luciferase output upon direct transfection,"[5]; TZM-bl cells directly transfected, relative to Tat-B-WT",approximately 90%
